Test results from patent US4200646A, “Method of controlling the growth of microorganisms using nitroalkyl thiocyanates” (International Minerals & Chemical Corporation, priority 1979, dated 1980).
Values after ≈ are worked out from the molar mass of the structure shown. “Also recorded” adds a separate entry of the source. Like-named read-outs stand apart in the source and are kept apart here.

What was measured:
bacteria and fungi = experiment: Antimicrobial activity against bacteria and fungi; assay type: cell-based
microorganisms = experiment: Control of growth of microorganisms in metal working fluids; details: 500-1000 ppm or more
[1] = LD50 in mice by oral administration; details: mouse, in vivo
Description: The LD50 in mice by oral administration was determined to be 500 mg/kg.

Pseudomonas aeruginosa = experiment: Tube dilution method, minimum inhibitory concentration; assay type: cell-based
Candida albicans = experiment: as above; assay type: cell-based
[2] = test system: Streptococcus hemolyticus; experiment: as above; assay type: cell-based; details: Streptococcus pyogenes
microbial contamination = experiment: Microbial contamination of cutting oil emulsion in use; details: emulsion with P-2216 0.1, light mineral oil 20, water 76.9, emulsifying agent 3 parts
Description: A cutting oil emulsion is prepared according to the following formula: […]
Light mineral oil 20 parts

Streptococcus fecalis = experiment: Tube dilution method, minimum inhibitory concentration; assay type: cell-based
Mycobacterium ranae = experiment: as above; assay type: cell-based
Staphyloccus aureus = experiment: as above; assay type: cell-based
Shigella dysenteriae = experiment: as above; assay type: cell-based; details: pH 7.3, read-out: Inhibitory Concn (minimum inhibitory concentration)
Escherichia coli = experiment: as above; assay type: cell-based
[3] = test system: Pasteurella pseudotuberculosis; experiment: microbe, parasite or virus in culture; assay type: cell-based; details: Yersinia pseudotuberculosis, pH 7.3, read-out: Inhibitory Concn (minimum inhibitory concentration)
Aspergillus niger = experiment: Tube dilution method, minimum inhibitory concentration; assay type: cell-based
Aspergillus fumigatus = experiment: as above; assay type: cell-based
Penicillium sp. = experiment: as above; assay type: cell-based
[4] = pH 7.3, read-out: Inhibitory Concn (minimum inhibitory concentration)
[5] = pH 5.6, read-out: Inhibitory Concn (minimum inhibitory concentration)
[6] = trypticase soya broth pH 7.3, range between highest concentration permitting growth and lowest preventing growth, read-out: Inhibitory Concn (minimum inhibitory concentration)
[7] = Sabouraud broth pH 5.6, range between highest concentration permitting growth and lowest preventing growth, read-out: Inhibitory Concn (minimum inhibitory concentration)

CC(SC#N)[N+](=O)[O-] (centres unmarked) [1-nitroethyl thiocyanate]
antimicrobial activity (in words) (bacteria and fungi): effective against a wide spectrum of bacteria and fungi
control of growth of microorganisms in metal working fluids (microorganisms): controls the growth of microorganisms for a prolonged period

CCC(SC#N)[N+](=O)[O-] (centres unmarked) [1-nitropropyl thiocyanate]
antimicrobial activity (in words) (bacteria and fungi): effective against a wide spectrum of bacteria and fungi
control of growth of microorganisms in metal working fluids (microorganisms): controls the growth of microorganisms for a prolonged period

CC(C)(SC#N)[N+](=O)[O-] [Example P-2216, 1-methyl-1-nitroethyl thiocyanate]
LD50 ([1]; mice, oral administration, read-out: LD50): 500 mg/kg
MIC (Pseudomonas aeruginosa; [4]): 10 to 50 µg/mL (≈ 68.4 to 342 µM)
MIC (Candida albicans; [5]): 1 to 10 µg/mL (≈ 6.84 to 68.4 µM)
MIC [2, 4]: 50 to 100 µg/mL (≈ 342 to 684 µM)
freedom from microbial contamination when used as a cutting oil (microbial contamination): remains free from microbial contamination for a long period of time
MIC (Streptococcus fecalis; Streptococcus, pH 7.3, read-out: Inhibitory Concn (minimum inhibitory concentration)): 50 to 100 µg/mL (≈ 342 to 684 µM)
MIC (Mycobacterium ranae; Mycobacterium, pH 7.3, read-out: Inhibitory Concn (minimum inhibitory concentration)): 1 to 10 µg/mL (≈ 6.84 to 68.4 µM)
MIC (Staphyloccus aureus; [4]): 1 to 10 µg/mL (≈ 6.84 to 68.4 µM)
MIC (Shigella dysenteriae): 10 to 50 µg/mL (≈ 68.4 to 342 µM)
MIC (Escherichia coli; [4]): 10 to 50 µg/mL (≈ 68.4 to 342 µM)
MIC [3]: 1 to 10 µg/mL (≈ 6.84 to 68.4 µM)
MIC (Aspergillus niger; [5]): 10 to 50 µg/mL (≈ 68.4 to 342 µM)
MIC (Aspergillus fumigatus; [5]): 1 to 10 µg/mL (≈ 6.84 to 68.4 µM)
MIC (Penicillium sp.; Penicillium, pH 5.6, read-out: Inhibitory Concn (minimum inhibitory concentration)): 10 to 50 µg/mL (≈ 68.4 to 342 µM)

N#CSC1([N+](=O)[O-])CCCCC1 [Example P-2217, 1-nitrocyclohexyl thiocyanate]
LD50 ([1]; oral, species not restated in Example 5 (mice in Example 1), read-out: oral LD50): 150 mg/kg
MIC (Pseudomonas aeruginosa; [6]): 10 to 50 µg/mL (≈ 53.7 to 268 µM)
antimicrobial activity (in words) (bacteria and fungi): effective against both bacteria and fungi; also recorded: effective against a wide spectrum of bacteria and fungi
MIC (Candida albicans; [7]): 10 to 50 µg/mL (≈ 53.7 to 268 µM)
MIC ([2]; Streptococcus hemolyticus, trypticase soya broth pH 7.3, range between highest concentration permitting growth and lowest preventing growth, read-out: Inhibitory Concn (minimum inhibitory concentration)): 50 to 100 µg/mL (≈ 268 to 537 µM)
MIC (Streptococcus fecalis; Streptococcus fecalis, trypticase soya broth pH 7.3, range between highest concentration permitting growth and lowest preventing growth, read-out: Inhibitory Concn (minimum inhibitory concentration)): 50 to 100 µg/mL (≈ 268 to 537 µM)
control of growth of microorganisms in metal working fluids (microorganisms): controls the growth of microorganisms for a prolonged period
MIC (Mycobacterium ranae; Mycobacterium ranae, trypticase soya broth pH 7.3, range between highest concentration permitting growth and lowest preventing growth, read-out: Inhibitory Concn (minimum inhibitory concentration)): 1 to 10 µg/mL (≈ 5.37 to 53.7 µM)
MIC (Staphyloccus aureus; Staphyloccus aureus, trypticase soya broth pH 7.3, range between highest concentration permitting growth and lowest preventing growth, read-out: Inhibitory Concn (minimum inhibitory concentration)): 1 to 10 µg/mL (≈ 5.37 to 53.7 µM)
MIC (Shigella dysenteriae): 50 to 100 µg/mL (≈ 268 to 537 µM)
MIC (Escherichia coli; [6]): 10 to 50 µg/mL (≈ 53.7 to 268 µM)
MIC [3]: 10 to 50 µg/mL (≈ 53.7 to 268 µM)
MIC (Aspergillus niger; [7]): 10 to 50 µg/mL (≈ 53.7 to 268 µM)
MIC (Aspergillus fumigatus; [7]): 1 to 10 µg/mL (≈ 5.37 to 53.7 µM)
MIC (Penicillium sp.; Penicillium sp., Sabouraud broth pH 5.6, range between highest concentration permitting growth and lowest preventing growth, read-out: Inhibitory Concn (minimum inhibitory concentration)): 10 to 50 µg/mL (≈ 53.7 to 268 µM)

N#CSC[N+](=O)[O-] [nitromethyl thiocyanate]
antimicrobial activity (in words) (bacteria and fungi): effective against a wide spectrum of bacteria and fungi
control of growth of microorganisms in metal working fluids (microorganisms): controls the growth of microorganisms for a prolonged period
